# Tests used:
# [1] = Inhibition of His-tagged XIAP BIR2-3 (125 to 356 residues) C202A/C213G double mutant (unknown origin) using fluorescein labeled SMAC peptide as substrate after 60 mins by HTRF assay; set-up: species or system Homo sapiens
# [2] = target: E3 ubiquitin-protein ligase XIAP (Homo sapiens, UniProt P98170); assay: Inhibition of His-tagged XIAP BIR3 (241 to 356 residues) (unknown origin) using fluorescein labeled SMAC peptide as substrate after 60 mins by HTRF assay
# Sequence of E3 ubiquitin-protein ligase XIAP (P98170 whole entry, the tested form may be a part): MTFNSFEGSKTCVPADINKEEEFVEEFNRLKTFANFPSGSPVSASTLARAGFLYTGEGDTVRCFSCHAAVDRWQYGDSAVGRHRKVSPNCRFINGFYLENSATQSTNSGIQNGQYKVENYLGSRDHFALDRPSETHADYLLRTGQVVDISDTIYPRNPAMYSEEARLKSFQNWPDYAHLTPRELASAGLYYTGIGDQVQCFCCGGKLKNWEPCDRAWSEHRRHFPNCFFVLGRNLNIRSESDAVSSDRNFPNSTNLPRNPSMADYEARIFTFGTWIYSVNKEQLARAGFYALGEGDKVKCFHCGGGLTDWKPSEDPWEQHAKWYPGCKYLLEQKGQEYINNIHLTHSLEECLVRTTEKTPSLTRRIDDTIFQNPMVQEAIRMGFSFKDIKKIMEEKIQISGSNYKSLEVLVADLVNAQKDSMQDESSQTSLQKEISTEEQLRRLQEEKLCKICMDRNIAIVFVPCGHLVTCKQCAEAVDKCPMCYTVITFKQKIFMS
IC50 [1],IC50 [2],Structure (SMILES)
12.3 nM,,CN[C@@H](C)C(=O)N[C@H](C(=O)N1C[C@@H](c2ccc(C[C@H](NC(=O)[C@@H](NC(=O)[C@H](C)NC)C(C)(C)SCC(=O)N(C)C[C@@H](O)CO)C(=O)N[C@@H]3CCCc4ccccc43)cc2)C[C@H]1C(=O)N[C@@H]1CCCc2ccccc21)C(C)(C)C
8.1 nM,1.4 nM,CN[C@@H](C)C(=O)N[C@H](C(=O)N1C[C@@H](c2ccc(CC(NC(=O)[C@@H](NC(=O)[C@H](C)NC)C(C)(C)SCC(=O)NC(CO)CO)C(=O)N[C@@H]3CCCc4ccccc43)cc2)C[C@H]1C(=O)N[C@@H]1CCCc2ccccc21)C(C)(C)C (stereo partly specified)
6.8 nM,,CN[C@@H](C)C(=O)N[C@H](C(=O)N[C@@H](Cc1ccc([C@H]2C[C@@H](C(=O)N[C@@H]3CCCc4ccccc43)N(C(=O)[C@@H](NC(=O)[C@H](C)NC)C(C)(C)C)C2)cc1)C(=O)N[C@@H]1CCCc2ccccc21)C(C)(C)C
9.5 nM,119 nM,CN[C@@H](C)C(=O)N[C@H](C(=O)NC(Cc1ccc(NC(=O)c2ccc(C(=O)NC3C[C@@H](C(=O)N[C@@H]4CCCc5ccccc54)N(C(=O)[C@@H](NC(=O)[C@H](C)NC)C(C)(C)C)C3)cc2)cc1)C(=O)N[C@@H]1CCCc2ccccc21)C(C)(C)C (stereo partly specified)
